Tested on: U2OS/ETAR-GFP cells
Assay: Lectin labeling of live cells, U2OS/ETAR-GFP
Type: cell-based, human
Settings: TRITC-lectin, 10 nM at maximum
Method: Lectin labeling of live cells was conducted as follows: Cells were seeded as described above. After 24 hours cells were washed once with PBS and incubated in the incubator for another 2 hours in the respective standard medium without serum supplement to deprive them of serum factor mediated stimuli. This step was termed starvation period. Subsequently, cells were washed gently with PBS and incubated with 37° C. tempered assay medium comprised of Hank's Balanced Salt Solution (HBSS) pH 7.4, containing 20 mM HEPES and 30 mM D-glucose. The plate was left at RT for 30 minutes to slowly level its temperature and, thus, avoid capturing of temperature drop induced membrane dynamics. This period was termed leveling period. Then, assay medium was withdrawn and wells refilled with TRITC-lectin solutions at RT to start cell labeling. Several lectin concentrations in the low nano-molar range were tested. Molar concentrations were calculated from the data provided by Vector Labs. The plate was placed on a rotating shaker at low revolutions for 10 minutes while incubating. The start of the lectin incubation is referred to as assay starting point with t=0 min. After the 10 min incubation period the cells were gently washed with PBS and wells refilled with assay buffer at RT. Instantly thereafter, fluorescence signals were monitored predominately using the epifluorescence microscope.
The following microscopy and image analysis techniques were employed. When utilizing the epifluorescence microscope magnifications were adjusted according to the purpose of observation, e.g. single cell vs. cell collective. Concerning the filters U-MNU was used for Hoechst, U-MSWB for GFP, and U-N41007 for TRITC detection. Hoechst images were taken at 50 ms exposure time, GFP images at 100 to 200 ms and TRITC images needed 500 to 1000 ms. Overlay images were assembled with AnalySIS and tuned in color intensity to obtain the desired color contrast. Images taken to compare two experimental conditions, e.g. control vs. stimulus, featured identical exposure parameters. If possible, well areas were chosen that reflect similar states of confluence. Utilizing the Opera confocal fluorescence imager, the instrument was calibrated running standard methods for skew cropping (spatial camera alignments) and camera intensity normalization.

succinylated Triticum vulgaris (wheat germ) agglutin [sWGA]
Live cell staining of U2OS/ETAR-GFP: spot formation
